Test results from a melting point compilation (Tetko et al.; mined from patent text by program, amines drawn as free bases though some values may be those of a salt).

Row | melting point [°C] | Compound
1 | 153 to 154 | CS(=O)(=O)OCCCC1Oc2cc3c(cc2NC1=O)CCCC3 (stereo not given)
2 | 202 to 207 | O=C(O)c1cn(C2CC2)c2c(OC(F)F)c(F)c(F)cc2c1=O
3 | 50 to 52 | CCCCCCCOCC1OC1CO (stereo not given)
4 | 76 | Cc1ccc(C=Cc2ccccc2)cc1C
5 | 182 to 183 | Clc1cc(Cl)c2cccc3c2c1N=C3NCCCn1ccnc1
6 | 78 | CNC(=Nc1ccccc1N1CCCCC1)C(C)(C)C
7 | 291 to 296 | Cc1noc(=O)c2ccc(N)cc12
8 | 161 to 164 | CCOC(=O)c1cn(-c2ccc(F)cc2F)c2cc(F)c(F)c(C)c2c1=O
9 | 70 to 71 | O=C=NCCC(F)(F)C(F)(F)C(F)(F)C(F)(F)C(F)(F)C(F)(F)C(F)(F)C(F)(F)C(F)(F)C(F)(F)F
10 | 107 | CCCCCCCCCCCCCCCC1CCCC(c2ccc(N)cc2)(c2ccc(N)cc2)C1 (stereo not given)
11 | 162 | OCC1OC(n2c(Cl)nc3c(Cl)cc(Cl)cc32)C(O)C1O (stereo not given)
12 | 242 to 244 | CN1CCN(c2ccc3c(=O)n4c(nc3c2)C(=O)c2cc(F)ccc2-4)CC1
13 | 125 | COc1cc(C)ccc1-c1cc2ccccc2[nH]1
14 | 110 to 111 | COC(=O)COc1ccc(Cc2ncc(C(F)(F)F)cc2Cl)c(Cl)c1Cl
15 | 87 to 88 | O=C(NCCCCn1ccnc1)Nc1ccccc1Cl
16 | 92 to 93 | Cn1ncc(N(CCCCl)Cc2ccccc2)c(Cl)c1=O
17 | 126 to 128 | O=c1[nH]c2cscc2c(=O)n1CCCCN1CCN(c2cccc(C(F)(F)F)c2)CC1
18 | 204 to 205 | COc1ccc(-c2ccc(-c3ccc(OC)cc3)c(-c3ccc(O)cc3)n2)cc1
19 | 118 to 119 | CC(C)Cc1nn(C)c(=O)c2cc(Cc3cccnc3)sc12
20 | 272 to 274 | CC(=O)N1CCN(c2c(C)c(C)c3c(c2C)C(c2ccc(C)cc2)C(C)(C)O3)CC1 (stereo not given)
21 | 29 to 30 | CCCCCCCCN(O)C(=O)N(C)C
22 | > 300 | COc1ccc(-c2[nH]nc3c2C(=O)c2c(NC(=O)Cc4ccc(NC(=O)CN(C)C)cc4)cccc2-3)cc1
23 | 112 to 113 | COc1cc(OC)cc(OCCCCCN2CCC(CNC(=O)c3cc(Cl)c(N)cc3OC)CC2)c1
24 | 138 | CCC1(CO)COC2(CC(c3ccc(Cl)cc3)SC(c3ccc(Cl)cc3)C2)OC1 (stereo not given)
25 | 223 to 224 | CC(C)Nc1nc2c(Cl)c(Cl)c(Cl)cc2n1[C@H]1O[C@@H](CO)[C@H](O)[C@@H]1O

Row | melting point [°C] | Compound
26 | > 245 | CN1CCN(Cn2cncc2-c2cc3c(Nc4ccc5[nH]ccc5c4)c(C#N)cnc3s2)CC1
27 | 137 to 140 | C=CCCNS(=O)(=O)CC(=O)C1=C(C)NC(C)=C(C(=O)OC(C)C)C1c1cccc([N+](=O)[O-])c1 (stereo not given)
28 | 193 to 195 | CC(C)(C)OC(=O)NC1CNc2c(cc(Br)cc2[N+](=O)[O-])C1 (stereo not given)
29 | 98 to 100 | CC(C)C(OCc1ccccc1)[C@H]1[C@H]([N+](=O)[O-])[C@H](c2cccnc2)N[C@@H]1C(=O)NCCC(=O)O (stereo not given in full)
30 | 215 to 218 | CC(Cl)C(=O)N1c2ccccc2C(=O)Nc2cccnc21 (stereo not given)
31 | 120 to 121 | COc1cc(COc2ncccc2C=O)ccc1OCc1nc(-c2ccco2)oc1C
32 | 51 to 52 | C#CCc1c(F)c(F)c(CO)c(F)c1F
33 | 134 to 135 | CCOC(=O)C(C#N)=CC=CN(C)C
34 | 241 to 244 | CC1(C)CCC(C)(C)c2cc(-c3cc(-c4ccc(C(=O)O)cc4)ccc3OCc3ccccc3)ccc21
35 | 224 to 226 | CCOC(=O)c1cc2c3n(ccc-2n1)C(Br)C(C)=N3 (stereo not given)
36 | 84 to 85 | COc1ccc(-c2coc3cc(OCC(O)CN4CCNCC4)ccc3c2=O)cc1OC (stereo not given)
37 | 244 to 246 | CC(=O)Nc1c(C(=O)c2ccccc2)[nH]c2cc(C#N)ccc12
38 | 264 to 266 | N#Cc1cc(-c2ccc3c(c2)C2(CCCC2)C(=O)N3)ccc1F
39 | 178 to 182 | COc1ccccc1Oc1c(NS(=O)(=O)c2ccc3ccccc3c2)nc(N2CCOCC2)nc1OCCOc1ncc(Br)cn1
40 | 125 to 127 | CS(=O)(=O)Oc1cnc2cc(OC(F)(F)F)ccc2c1O
41 | 223 to 227 | Cc1cc2cc(CN3CCC(CCC(N)=O)CC3)cnc2cc1NC(=O)c1ccc(-c2ccc(F)cc2)cc1
42 | 155 to 160 | CC1(C)COc2cc3c(cc21)C1(CO3)C(=O)N(Cc2ccc(C(F)(F)F)o2)c2ccccc21 (stereo not given)
43 | > 300 | Clc1cc(Nc2ccccc2)c2nc[nH]c2n1
44 | 141 to 142 | Fc1cccc(F)c1-c1nccc(-c2ccc(-c3ccc(C(F)(F)F)cc3)cc2)n1
45 | 165 to 166 | Cc1ccccc1S(=O)(=O)NC(=O)CCc1cc(OC(C)C)nn1Cc1ccc(Cl)cc1Cl
46 | 268 to 270 | O=C1NCCc2[nH]c3c(Br)cccc3c21
47 | 182 to 186 | COC(=O)c1c(S(=O)(=O)NC(=O)Nc2nc(OC)cc(OC)n2)ccn1C
48 | 91 to 92 | COc1ccc(C=CC(=O)c2cccc(OCCCCBr)c2)cc1
49 | 220 to 222 | O=c1[nH]c2ncc(-c3ccc(F)nc3)nc2n1CC1CCOCC1
50 | 191 to 201 | CC1N(C(=O)c2ccc(C(F)(F)F)cc2)CC(n2cncn2)OC1(Cn1cncn1)c1ccc(Cl)cc1Cl (stereo not given)

Row | melting point [°C] | Compound
51 | 180 | C=CCCC(C)(NC(c1ccccc1)c1ccccc1)P(O)O (stereo not given)
52 | 125 | CC1SC(=O)NN=C1c1ccc2c(c1)C(C)(C)C(=O)N2C (stereo not given)
53 | 232 to 233 | O=C1N=Nc2ccccc21
54 | 93 to 94 | CCOC(=O)C1=CC(=O)CC(c2ccc(Cl)cc2)N1 (stereo not given)
55 | 173 | COc1cc(C(O)CN2CCN(C(c3ccccc3)c3ccccc3)CC2)cc(OC)c1OC (stereo not given)
56 | 115 | CCc1c(C)c2c(OC)cc(-c3ccc(C(C)C)cc3)cc2oc1=O
57 | 184 to 185 | CS(=O)(=O)c1ccc(-c2c(-c3ccc(F)cc3)nc3sccn23)cc1
58 | 214 to 215 | Cc1nc(N)nc(-c2cccc3ccccc23)c1C
59 | 97 to 113 | Cc1cc(N(C)C)ccc1C1(N(c2ccc(N(C)C)cc2)c2ccc(N(C)C)cc2)OC(=O)c2ccccc21 (stereo not given)
60 | 87 to 89 | O=C(O)c1ccc(OCCCCCCc2cccc(OCc3ccccc3)c2OCc2ccccc2)c(Cl)c1
61 | 167 to 170 | Nc1cc(C(=O)Nc2ccccc2)ccc1F
62 | 99 to 103 | Cc1cc(C)c(/C=C/C=O)c(Br)c1
63 | 45 to 47 | CCCCCCCCC(Oc1ccc(C(=O)CCCCCCC)cc1)C(=O)O (racemic)
64 | 99.5 to 100 | CS(=O)(=O)Nc1cc(C(O)CNCCCCCCOCCCCOc2ccc3ccccc3c2)ccc1O (stereo not given)
65 | 70 to 71 | O=C(CCC(=O)OC(=O)CCC(=O)OCc1ccccc1)OCc1ccccc1
66 | 75.4 | C=CC(=O)Oc1cccc(-c2ccc3cc(OC(=O)C=C)ccc3c2)c1
67 | 134 to 136 | Oc1cccc2c1CCC2N1CCCCC1 (stereo not given)
68 | 165 to 167 | CC(C)(C)c1noc(-c2cccc(S(C)(=O)=O)n2)n1
69 | 152 to 154 | COC=C(C(=O)OC)N(C)c1ccnc(-c2ccccc2)n1
70 | 185 | O=C(O)CCCSc1ccc(C(=O)O)cn1
71 | 219 to 220 | N#Cc1ccc(Oc2ccc(C3CCCN4CCS(=O)(=O)N=C34)cc2)cc1Cl (stereo not given)
72 | 74 to 76 | OC(CCl)COc1ccc2c(c1)OCC(c1ccccc1)C2 (stereo not given)
73 | 248 to 250 | Nc1nc(N)nc(N2CCOCC2)n1
74 | 212 | CCCCc1ncc2ccccc2c1Cc1ccc(C(=O)O)cc1
75 | 238 to 241 | COc1ccc(CNC(=O)c2cc3c(=O)n(Cc4ccc([N+](=O)[O-])nc4)c(=O)n(C)c3s2)cc1

Row | melting point [°C] | Compound
76 | 178 to 180 | O=C(Nc1ccccc1)OCc1cn(-c2cc3cc(C(=O)O)c(=O)[nH]c3cc2C(F)(F)F)cn1
77 | 59 to 61 | C[C@H](OC(=O)CCC(=O)O[C@@H](C)C(=O)O)C(=O)O
78 | 45 to 48 | CCCCCCCCCCCCC(Oc1ccc(O)c(C(C)(C)C)c1)C(=O)OCC (stereo not given)
79 | 153 to 154 | CS(=O)(=O)c1ccc(-c2sc(CCc3ccccc3)nc2-c2ccc(F)cc2)cc1
80 | 132 to 135 | COc1ccc(NS(C)(=O)=O)cc1CN1CCC(=O)C(C(c2ccccc2)c2ccccc2)C1 (stereo not given)
81 | 250 to 252 | CC(C)CNc1cc(C(=O)O)cc(S(N)(=O)=O)c1Sc1ccc(N)cc1
82 | 105 to 107 | CCOc1cccc(C(S)C(=O)O)c1 (stereo not given)
83 | 114 to 116 | CCCc1cc(=O)oc2cc(OCCCN3CCN(c4ccccc4)CC3)ccc12
84 | 212 to 214 | c1ccc(CCN2CCN(c3n[nH]c4c3Cc3ccccc3-4)CC2)cc1
85 | 207 to 208 | CN(c1cccc2cc(C3=NCC(CO)S3)[nH]c12)S(=O)(=O)c1cccs1 (stereo not given)
86 | 255 | CC(=O)Nc1cc(C)c2c(C)c(C)[nH]c2c1
87 | 58 to 60 | CS(=O)(=O)OCCc1ccc(NC(=O)OCc2ccccc2)cc1CCOS(C)(=O)=O
88 | 207 to 208 | CC(=O)OCC1Cc2c(c3cccnc3n(-c3ccccc3)c2=O)O1 (stereo not given)
89 | 57 to 62 | c1ccc(OCCSCc2nnc(-c3ccc(OCCCCN4CCCCC4)cc3)o2)cc1
90 | 169 to 171 | CC(=O)OC(C(=O)O)(C(=O)N(C(C)=O)C(C)=O)c1ccc(Cl)c(C)c1 (stereo not given)
91 | 186 | COC(=O)c1cc(-c2ccc(Cl)cc2)n(-c2ccc(S(N)(=O)=O)cc2)n1
92 | 151 to 152 | CCOC(=O)/C(=N\OCC(=O)N1CCCCC1)c1csc(N)n1
93 | 244 to 246 | CCOc1nc2ccccc2n(-c2ccc(Cl)cc2)c1=O
94 | 180 to 182 | O=[N+]([O-])c1cccc2c1ncn2-c1cccc(Br)c1
95 | 67 to 69 | CC(=O)Oc1c(Cc2ccccc2)ccc2ccccc12
96 | 282 to 284 | O=C1NC(c2ccccc2)C(=O)NC1c1ccccc1 (stereo not given)
97 | 170 to 172 | CC1CC(NC(=O)C(F)(F)F)=NN1c1ccc(Cl)cc1 (stereo not given)

Row | Compound | melting point [°C]
98 | CC1CC2CC(C)(CN2)C1(C)C(=O)C=CCO (stereo not given) | 72 to 75
99 | OC1(C#Cc2ccccc2Cc2ccccc2)CN2CCC1CC2 (stereo not given) | 156 to 157
100 | CCC(F)c1cc(N2CCNCC2)cc(-c2ccccc2C#N)c1Cl (stereo not given) | 159
